Entries after “also recorded” stand apart in the source; their conditions may differ.
Experiments:
[1] = tested on: peptide-pulsed C1R-A11 cells; test: IFN-gamma ELISPOT assay of peptide-induced CTLs (HLA-A*1101); assay type: cell-based, human; details: CTLs induced from HLA-A*1101-positive donors, peptide-pulsed C1R-A11 vs control
Summary of the method: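 CD8+ T cells from HLA-A*1101-positive healthy donors stimulated three times (days 0, 7, 14) with autologous monocyte-derived DCs pulsed with 20 μg/ml peptide, with IL-7 and IL-2. On day 21, CTL lines and clones tested by IFN-γ ELISPOT against peptide-pulsed C1R-A11 stimulators (1×10^4 cells/well).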

peptide-pulsed C1R-A03 = test: IFN-gamma ELISA of CTL lines and CTL clones (HLA-A*0301); assay type: cell-based, human; details: for IFN-gamma production of CTL clones: CTL clones by limiting dilution; for IFN-gamma production of CTL lines: peptide-pulsed vs non-pulsed target cells, HLA-A*0301
Method: CTLs were propagated in culture using methods similar to those disclosed by Riddell et al. (Walter E A et al., N Engl J Med 1995, 333(16): 1038-44; Riddell S R et al., Nat Med 1996, 2(2): 216-23). The CTLs were co-cultured in a total of 25 ml AIM-V medium containing 5% AS (AIM-V/5% AS) and 40 ng/ml anti-CD3 antibody with two types of Mitomycin C-treated human B lymphoblastoid cell lines at 5×10^6 cells/flask. One day after beginning of the culturing, 120 IU/ml IL-2 was added to the culture. On days 5, 8 and 11, a fresh AIM-V/5% AS medium containing 30 IU/ml IL-2 was added to the culture (Tanaka H et al., Br J Cancer 2001, 84(1): 94-9; Umano Y et al., Br J Cancer 2001, 84(8): 1052-7; Uchida N et al., Clin Cancer Res 2004, 10(24): 8577-86; Suda T et al., Cancer Sci 2006, 97(5): 411-9; Watanabe T et al., Cancer Sci 2005, 96(8): 498-506).
Dilution of CTLs was carried out to make 0.3, 1 and 3 cells/well in 96 round-bottomed microtiter plates (Nalge Nunc International). The CTLs were co-cultured with two types of Mitomycin C-treated human B lymphoblastoid cell lines at 1×10^4 cells/well in a total of 150 micro-l/well AIM-V/5% AS medium with 30 ng/ml anti-CD3 antibody and 125 IU/ml IL-2. Ten days later, IL-2 was added to the medium at 50 micro-l/well to reach a final concentration of 125 IU/ml. On day 14, the CTL activity was tested, and the CTL clones were propagated using the same method as described above (Uchida N et al., Clin Cancer Res 2004, 10(24): 8577-86; Suda T et al., Cancer Sci 2006, 97(5): 411-9; Watanabe T et al., Cancer Sci 2005, 96(8): 498-506).
Specifically, peptide-pulsed C1R-A03 (1×10^4 cells/well) was prepared as the stimulator cell. The induced CTLs, i.e., CTL lines and CTL clones, were used as the responder cell. The IFN-gamma ELISPOT assay and IFN-gamma ELISA were performed according to the manufacturer's manual.

[2] = tested on: COS7 cells transfected with CDCA1 and HLA-A*0301; test: Specific CTL activity against target cells expressing CDCA1 and HLA-A*0301; assay type: cell-based, African green monkey; details: for specific CTL activity of CTL clones: COS7 cells transfected with both CDCA1 and HLA-A*0301; for specific CTL activity of CTL clones against control cells: COS7 cells transfected with either full-length CDCA1 or HLA-A*0301
Description: A cDNA encoding the open-reading frame of a target gene or HLA-A*0301 was amplified by PCR. The PCR-amplified product was cloned into an expression vector. Either or both of the target gene-expressing vector and the HLA-A*0301-expressing vector were transfected into COS7, which is a cell line negative for the target gene and HLA, using Lipofectamine 2000 (Invitrogen) following the manufacturer's recommended protocol. Two days after transfection, the transfected cells were harvested using versene (Invitrogen), and used as the target cell for CTL activity assay (5×10^4 cells/well).
The CTL clones established against CDCA1-A03-9-219 (SEQ ID NO: 7) (a) and CDCA1-A03-10-400 (SEQ ID NO: 38) (b) were investigated for their ability to recognize target cells expressing CDCA1 and the HLA-A*0301 molecule. COS7 cells transfected with both full-length CDCA1 and the HLA-A*0301 gene (a specific model of target cells expressing CDCA1 and the HLA-A*0301 gene) were prepared as the target cell. COS7 cells transfected with either full-length CDCA1 or HLA-A*0301 were prepared as the control.

Row | Sequence | peptide-specific CTL activity (IFN-gamma production) ([1]; listed as CDCA1-A11-9-219) | IFN-gamma production of CTL clones (peptide-pulsed C1R-A03; peptide-pulsed C1R-A03, listed as CDCA1-A03-9-219) | IFN-gamma production of CTL lines (peptide-pulsed C1R-A03) | specific CTL activity of CTL clones ([2]; listed as CDCA1-A03-9-219) | specific CTL activity of CTL clones against control cells ([2]; listed as CDCA1-A03-9-219) | peptide-specific CTL activity (IFN-gamma production) ([1]; listed as CDCA1-A11-10-400) | IFN-gamma production of CTL clones (peptide-pulsed C1R-A03; peptide-pulsed C1R-A03, listed as CDCA1-A03-10-400) | specific CTL activity of CTL clones ([2]; listed as CDCA1-A03-10-400) | specific CTL activity of CTL clones against control cells ([2]; listed as CDCA1-A03-10-400)
1 | KTKRLNELK (a peptide derived from CDCA1) [SEQ ID NO: 7] | potent IFN-gamma production; also recorded: significant specific CTL activity | Potent IFN-gamma production | potent IFN-gamma production | specific CTL activity; also recorded: potent CTL activity | a significant specific CTL activity was not shown; also recorded: a significant specific CTL activity was not detected | – | – | – | –
2 | KIKLGIQQLK (a peptide derived from CDCA1) [SEQ ID NO: 38] | – | – | potent IFN-gamma production | – | – | potent IFN-gamma production; also recorded: significant specific CTL activity | Potent IFN-gamma production | specific CTL activity; also recorded: potent CTL activity | a significant specific CTL activity was not shown; also recorded: a significant specific CTL activity was not detected
